# In the supplement of paper PMC10331698:
# ± gives the standard deviation of the averaged measurements.
# Assays:
# Assay in all cases: level (log10 ratio to DMSO vehicle control); higher = higher biomarker level / cell amount than vehicle control
# Conditions in all cases: in DMSO
# 1H,1H-Heptafluorobutanol = compound: OCC(F)(F)C(F)(F)C(F)(F)F [1H,1H-Heptafluorobutanol]
# Experimental: (§1)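 BioMAP Diversity Plus panel of 12 human primary cell co-culture systems (3C, 4H, LPS, SAg, BT, BF4T, BE3C, CASM3C, HDF3CGF, KF3CT, MyoF, Mphg). Compounds were added 1 h before stimulation and left for 24 h (MyoF 48 h; BT 72 h for soluble read-outs or 6 d for IgG). Biomarkers were read by ELISA, cytotoxicity by SRB, PBMC viability and proliferation by Alamar Blue. Each well value was divided by the mean of 8 DMSO control wells on the same plate and log10 transformed; duplicate blinded samples were tested at 4 concentrations.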
# Perfluorooctanamide = compound: NC(=O)C(F)(F)C(F)(F)C(F)(F)C(F)(F)C(F)(F)C(F)(F)C(F)(F)F [Perfluorooctanamide]
# Experimental: as §1
# [1] = compound: CC(C)(C)C(=O)CC(=O)C(F)(F)C(F)(F)C(F)(F)F [(Heptafluorobutanoyl)pivaloylmethane]
# Experimental: as §1
# Hexafluoroglutaric acid = compound: O=C(O)C(F)(F)C(F)(F)C(F)(F)C(=O)O [Hexafluoroglutaric acid]
# Experimental: as §1
# [2] = compound: C=CC(=O)OCCC(F)(F)C(F)(F)C(F)(F)C(F)(F)F [2-(Perfluorobutyl)ethyl acrylate]
# Experimental: as §1
# [3] = compound: O=C(O)C(F)(F)C(F)(F)C(F)(F)C(F)(F)C(F)(F)C(F)(F)C(F)(F)C(F)(F)Cl [9-Chloro-perfluorononanoic acid]
# Experimental: as §1
# [4] = compound: O=C(O)CCC(F)(F)C(F)(F)C(F)(F)C(F)(F)C(F)(F)F [2H,2H,3H,3H-Perfluorooctanoic acid]
# Experimental: as §1
Test System,"level (log10) (1H,1H-Heptafluorobutanol; 6700 nM)","level (log10) (1H,1H-Heptafluorobutanol; 20000 nM)","level (log10) (1H,1H-Heptafluorobutanol; 60000 nM)",level (log10) (Perfluorooctanamide; 6700 nM),level (log10) (Perfluorooctanamide; 20000 nM),level (log10) (Perfluorooctanamide; 60000 nM),level (log10) ([1]; 6700 nM),level (log10) ([1]; 20000 nM),level (log10) ([1]; 60000 nM),level (log10) (Hexafluoroglutaric acid; 6700 nM),level (log10) (Hexafluoroglutaric acid; 20000 nM),level (log10) (Hexafluoroglutaric acid; 60000 nM),level (log10) ([2]; 6700 nM),level (log10) ([2]; 20000 nM),level (log10) ([2]; 60000 nM),level (log10) ([3]; 6700 nM),level (log10) ([3]; 20000 nM),level (log10) ([4]; 6700 nM),level (log10) ([4]; 20000 nM),level (log10) ([4]; 60000 nM)
3C:CD62E/E-Selectin,-0.006 ± 0.0028,-0.0025 ± 0.0035,0.015 ± 0.016,-0.009 ± 0.013,-0.0115 ± 0.0078,0.004 ± 0.025,-0.0155 ± 0.0092,-0.022 ± 0.0099,-0.003 ± 0.017,-0.0035 ± 0.053,-0.002 ± 0.038,0.031 ± 0.014,-0.016 ± 0.0028,-0.059 ± 0.0014,-0.163 ± 0.05,-0.005 ± 0.0057,0.001 ± 0.017,-0.01 ± 0.038,-0.015 ± 0.058,0.006 ± 0.033
lMphg:M-CSF,-0.005 ± 0.017,0.0045 ± 0.016,0.0125 ± 0.019,0.0175 ± 0.011,-0.0055 ± 0.042,0.0085 ± 0.059,-0.0265 ± 0.039,-0.027 ± 0.051,-0.0315 ± 0.032,-0.028 ± 0.014,-0.017 ± 0.0042,-0.0175 ± 0.019,-0.0155 ± 0.029,-0.011 ± 0.028,-0.001 ± 0.018,-0.0055 ± 0.0021,-0.0045 ± 0.0021,-0.0155 ± 0.0021,0.0035 ± 0.0064,-0.046 ± 0.014
HDF3CGF:CXCL8/IL-8,-0.0025 ± 0.0064,0 ± 0.0028,0.0015 ± 0.0021,-0.0075 ± 0.0021,-0.0055 ± 0.012,-0.005 ± 0.0014,0.0025 ± 0.0035,-0.001 ± 0.0099,-0.0005 ± 0.0035,-0.005 ± 0.013,-0.0005 ± 0.0064,-0.0015 ± 0.0035,-0.003 ± 0.011,0 ± 0.0028,-0.007 ± 0.021,-0.0225 ± 0.011,0.0015 ± 0.005,-0.014 ± 0.014,-0.009 ± 0.014,-0.007 ± 0.025
MyoF:Collagen IV,-0.0305 ± 0.025,-0.037 ± 0.033,-0.029 ± 0.0071,-0.0335 ± 0.026,-0.0345 ± 0.042,-0.079 ± 0.064,-0.0345 ± 0.021,-0.0295 ± 0.0092,0.0005 ± 0.0021,-0.004 ± 0.013,0.002 ± 0.021,-0.0055 ± 0.0064,0.0195 ± 0.0078,-0.0085 ± 0.012,0.0295 ± 0.035,0.024 ± 0.0071,0.264 ± 0.031,-0.009 ± 0.021,-0.0075 ± 0.026,0.0115 ± 0.023
3C:CD106/VCAM-1,0.008 ± 0.033,0.018 ± 0.025,0.001 ± 0.037,-0.023 ± 0.0028,-0.005 ± 0.0099,-0.004 ± 0.0057,0.0015 ± 0.00071,-0.0045 ± 0.026,0.019 ± 0.018,0.009 ± 0.018,0.004 ± 0.021,-0.008 ± 0.0057,-0.0335 ± 0.005,-0.0715 ± 0.039,-0.14 ± 0.04,-0.005 ± 0.0014,-0.001 ± 0.021,-0.021 ± 0.0057,-0.0295 ± 0.026,-0.025 ± 0.023
KF3CT:IL-1alpha,0 ± 0.0042,0 ± 0.0014,-0.018 ± 0.0057,-0.0055 ± 0.011,0.0125 ± 0.0064,0.039 ± 0.03,0.02 ± 0.021,0.015 ± 0.013,0.02 ± 0.023,-0.021 ± 0.014,0.012 ± 0.013,-0.0395 ± 0.012,-0.036 ± 0.0057,-0.075 ± 0.013,-0.059 ± 0.038,-0.0295 ± 0.042,-0.056 ± 0.031,0.007 ± 0.0085,-0.0055 ± 0.016,-0.0345 ± 0.029
BE3C:uPA,-0.0035 ± 0.005,0.015 ± 0.011,0.002 ± 0.0028,0.0025 ± 0.0035,0.0005 ± 0.005,0.0135 ± 0.0021,0.0025 ± 0.018,-0.0035 ± 0.023,0.002 ± 0.03,-0.01 ± 0.0085,-0.017 ± 0.0042,-0.0075 ± 0.011,0.0075 ± 0.032,-0.0035 ± 0.022,-0.0175 ± 0.015,0.0035 ± 0.011,-0.0125 ± 0.011,0.0025 ± 0.011,-0.009 ± 0.0085,0.0025 ± 0.005
